Reference: the supplement of paper PMC8671470
± gives the standard deviation of the averaged measurements.

Columns and labels:
Conditions in all cases: 72 h
BV-173 [1] = system: BV-173
Summary of the method: (§1)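 Fifteen myeloid leukaemia cell lines were seeded in RPMI 1640 at densities titrated to the linear growth range and placed in 384-well plates with acoustically pre-printed compounds at five tenfold doses from 1 to 10,000 nM, in duplicate. After 72 h at 37 °C with 5% CO2, luminescent ATP viability was normalised to vehicle and to a positive control at 10 µM, and curves were fitted with a four-parameter log-logistic model. The IC50 was obtained from these fits.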

HEL [2] = system: HEL
Summary of the method: as §1

HL-60 [3] = system: HL-60
Summary of the method: as §1

K-562 [4] = system: K-562
Summary of the method: as §1

KCL-22 [5] = system: KCL-22
Summary of the method: as §1

KG-1 [6] = system: KG-1
Summary of the method: as §1

KU-812 = system: KU-812
Summary of the method: as §1

LAMA-84 [7] = system: LAMA-84
Summary of the method: as §1

ML-2 [8] = system: ML-2
Summary of the method: as §1

MOLM-13 = system: MOLM-13
Summary of the method: as §1

MV4-11 [9] = system: MV4-11
Summary of the method: as §1

Mono-Mac-6 [10] = system: Mono-Mac-6
Summary of the method: as §1

NOMO-1 = system: NOMO-1
Summary of the method: as §1

SHI-1 [11] = system: SHI-1
Summary of the method: as §1

THP-1 = system: THP-1
Summary of the method: as §1

HL-60 [12] = experiment: cell viability (% survival relative to DMSO control); higher = less cytotoxic
Summary of the method: (§2)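 HL-60 cells in RPMI 1640 with 10% FBS were rescreened against the full library on 384-well plates at five tenfold concentrations, 1–10,000 nM, in duplicate. Each screen was run with DMSO or 100 nM of one of three metabolic inhibitors, for 72 h at 37 °C, 5% CO2. Viability was read by CellTiter-Glo and normalised to DMSO and 10 μM proteasome-inhibitor wells. Where given, area under the curve came from four-parameter log-logistic fits (drc, PharmacoGx).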

BV-173 [13] = experiment: cell viability (% survival relative to DMSO control, bortezomib = 0%); higher = less cytotoxic
Summary of the method: (§3)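 Percent survival figures are means of duplicate wells. They were obtained by CellTiter-Glo luminescence after 10 AML and 5 CML cell lines spent 72 h at 37 °C with 5% CO2 in 384-well plates with compounds at 1, 10, 100, 1000 or 10000 nM. Vehicle was set to 100% and a 10 µM positive control to 0%.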

HEL [14] = experiment: as above
Summary of the method: as §3

HL-60 [15] = experiment: as above
Summary of the method: as §3

K-562 [16] = experiment: as above
Summary of the method: as §3

KCL-22 [17] = experiment: as above
Summary of the method: as §3

KG-1 [18] = experiment: as above
Summary of the method: as §3

LAMA-84 [19] = experiment: as above
Summary of the method: as §3

ML-2 [20] = experiment: as above
Summary of the method: as §3

MV4-11 [21] = experiment: as above
Summary of the method: as §3

Mono-Mac-6 [22] = experiment: as above
Summary of the method: as §3

SHI-1 [23] = experiment: as above
Summary of the method: as §3

HL-60 [24] = experiment: area under dose-response curve (viability, 1 nM-10 uM) (fraction (0-1)); higher = more sensitive
Summary of the method: as §2

CCCCCCCCCCCCCCOc1ccc(C(=O)O)o1 [TOFA]
Conditions | IC50 (cell viability) [µM]
BV-173 [1] | > 10
HEL [2] | > 10
HL-60 [3] | > 10
K-562 [4] | > 10
KCL-22 [5] | 8.33
KG-1 [6] | > 10
KU-812 | > 10
LAMA-84 [7] | > 10
ML-2 [8] | > 10
MOLM-13 | > 10
MV4-11 [9] | > 10
Mono-Mac-6 [10] | > 10
NOMO-1 | > 10
SHI-1 [11] | > 10
THP-1 | > 10

cell viability [%], HL-60 [12]
Conditions | 0.001 µM | 0.01 µM | 0.1 µM | 1 µM | 10 µM
co-treatment: AZD3965 100 nM | 96.4 ± 6.9 | 101 ± 5.1 | 104 ± 9.2 | 97.5 ± 1.2 | 100 ± 1.9
co-treatment: DMSO vehicle | 98.8 ± 0.47 | 102 ± 3.9 | 98.8 ± 3 | 98.5 ± 2.7 | 97.592 ± 0.042
co-treatment: GSK2194069 100 nM | 81.3 ± 24 | 96.3 ± 8.4 | 84.6 ± 29 | 95.9 ± 13 | 94.01 ± 0.71
co-treatment: pictilisib 100 nM | 80.5 ± 24 | 100 ± 1.6 | 94.5 ± 3.8 | 107 ± 7.6 | 2.06 ± 0.22

Conditions | area under dose-response curve, co-treatment: AZD3965 100 nM | area under dose-response curve, co-treatment: DMSO vehicle | area under dose-response curve, co-treatment: GSK2194069 100 nM | area under dose-response curve, co-treatment: pictilisib 100 nM | cell viability, 1 nM [%] | cell viability, 10 nM [%] | cell viability, 100 nM [%] | cell viability, 1000 nM [%] | cell viability, 10000 nM [%]
BV-173 [13] | – | – | – | – | 110 | 104 | 101 | 90.1 | 103
HEL [14] | – | – | – | – | 108 | 91.8 | 103 | 103 | 83.8
HL-60 [15] | – | – | – | – | 75.1 | 83.8 | 108 | 109 | 85.4
HL-60 [24] | < 0.0301 | < 0.0301 | < 0.0301 | 0.114 | – | – | – | – | –
K-562 [16] | – | – | – | – | 100 | 93.4 | 92 | 108 | 114
KCL-22 [17] | – | – | – | – | 94.2 | 90.6 | 108 | 107 | 40.4
KG-1 [18] | – | – | – | – | 95.8 | 103 | 116 | 97.5 | 93.2
LAMA-84 [19] | – | – | – | – | 106 | 105 | 102 | 103 | 90.1
ML-2 [20] | – | – | – | – | 101 | 92.8 | 110 | 101 | 108
MV4-11 [21] | – | – | – | – | 87.6 | 87.9 | 104 | 98.4 | 96.2
Mono-Mac-6 [22] | – | – | – | – | 113 | 94.5 | 99.8 | 94.2 | 105
SHI-1 [23] | – | – | – | – | 113 | 85.6 | 110 | 98.9 | 89.9

CN1CC(=O)N2[C@H](c3ccc4c(c3)OCO4)c3[nH]c4ccccc4c3C[C@@H]2C1=O [Tadalafil]
Conditions | IC50 (cell viability) [µM]
BV-173 [1] | > 10
HEL [2] | > 10
HL-60 [3] | > 10
K-562 [4] | > 10
KCL-22 [5] | > 10
KG-1 [6] | > 10
KU-812 | > 10
LAMA-84 [7] | > 10
ML-2 [8] | > 10
MOLM-13 | > 10
MV4-11 [9] | > 10
Mono-Mac-6 [10] | > 10
NOMO-1 | > 10
SHI-1 [11] | > 10
THP-1 | > 10

cell viability [%], HL-60 [12]
Conditions | 0.001 µM | 0.01 µM | 0.1 µM | 1 µM | 10 µM
co-treatment: AZD3965 100 nM | 104 ± 3.4 | 105.1 ± 0.41 | 97.6 ± 2.9 | 104 ± 1.3 | 109 ± 1.1
co-treatment: DMSO vehicle | 100.5 ± 0.71 | 103 ± 3.7 | 98 ± 8.3 | 100 ± 1.4 | 112 ± 6.6
co-treatment: GSK2194069 100 nM | 101.9 ± 0.6 | 106 ± 1.3 | 102 ± 1.4 | 105 ± 1.2 | 95.2 ± 2.1
co-treatment: pictilisib 100 nM | 99.6 ± 3 | 94.8 ± 7.5 | 96.9 ± 3.5 | 93.4 ± 7.5 | 89.9 ± 8.3

Conditions | area under dose-response curve, co-treatment: AZD3965 100 nM | area under dose-response curve, co-treatment: DMSO vehicle | area under dose-response curve, co-treatment: GSK2194069 100 nM | area under dose-response curve, co-treatment: pictilisib 100 nM | cell viability, 1 nM [%] | cell viability, 10 nM [%] | cell viability, 100 nM [%] | cell viability, 1000 nM [%] | cell viability, 10000 nM [%]
BV-173 [13] | – | – | – | – | 95.5 | 87 | 89.6 | 96.8 | 88.3
HEL [14] | – | – | – | – | 103 | 77.5 | 93.1 | 98 | 94.7
HL-60 [15] | – | – | – | – | 106 | 75.2 | 107 | 72.9 | 117
HL-60 [24] | < 0.0301 | < 0.0301 | < 0.0301 | < 0.0301 | – | – | – | – | –
K-562 [16] | – | – | – | – | 108 | 105 | 90.6 | 96.4 | 91
KCL-22 [17] | – | – | – | – | 103 | 89.2 | 92 | 101 | 81.7
KG-1 [18] | – | – | – | – | 107 | 98.4 | 99.8 | 103 | 99.4
LAMA-84 [19] | – | – | – | – | 101 | 97.9 | 96.8 | 102 | 103
ML-2 [20] | – | – | – | – | 95.6 | 94.1 | 92 | 101 | 94.9
MV4-11 [21] | – | – | – | – | 100 | 86.7 | 95.3 | 102 | 92.6
Mono-Mac-6 [22] | – | – | – | – | 99.8 | 93 | 94.8 | 95.4 | 99
SHI-1 [23] | – | – | – | – | 109 | 102 | 98.9 | 97.8 | 88.3

Cl.NC1=CCCN1Cc1nc(O)nc(O)c1Cl [Tipiracil]
Conditions | IC50 (cell viability) [µM]
BV-173 [1] | > 10
HEL [2] | > 10
HL-60 [3] | > 10
K-562 [4] | > 10
KCL-22 [5] | > 10
KG-1 [6] | > 10
KU-812 | > 10
LAMA-84 [7] | > 10
ML-2 [8] | > 10
MOLM-13 | > 10
MV4-11 [9] | > 10
Mono-Mac-6 [10] | > 10
NOMO-1 | > 10
SHI-1 [11] | > 10
THP-1 | > 10

cell viability [%], HL-60 [12]
Conditions | 0.001 µM | 0.01 µM | 0.1 µM | 1 µM | 10 µM
co-treatment: AZD3965 100 nM | 98.3 ± 4.6 | 102 ± 3.3 | 99.7 ± 1.8 | 101 ± 1.4 | 99.5 ± 5.9
co-treatment: DMSO vehicle | 97.2 ± 11 | 94.3 ± 3.1 | 102 ± 7.2 | 99.34 ± 0.1 | 100.1 ± 0.34
co-treatment: GSK2194069 100 nM | 98.7 ± 1.1 | 97.9 ± 6.2 | 97.8 ± 1.5 | 98.6 ± 4.8 | 88 ± 10
co-treatment: pictilisib 100 nM | 93 ± 6.2 | 100 ± 9.1 | 93.7 ± 2 | 97 ± 1.6 | 86.7 ± 19

Conditions | area under dose-response curve, co-treatment: AZD3965 100 nM | area under dose-response curve, co-treatment: DMSO vehicle | area under dose-response curve, co-treatment: GSK2194069 100 nM | area under dose-response curve, co-treatment: pictilisib 100 nM | cell viability, 1 nM [%] | cell viability, 10 nM [%] | cell viability, 100 nM [%] | cell viability, 1000 nM [%] | cell viability, 10000 nM [%]
BV-173 [13] | – | – | – | – | 108 | 95.1 | 97.9 | 99.5 | 106
HEL [14] | – | – | – | – | 122 | 102 | 112 | 111 | 103
HL-60 [15] | – | – | – | – | 98.8 | 97.2 | 127 | 130 | 119
HL-60 [24] | < 0.0301 | < 0.0301 | < 0.0301 | < 0.0301 | – | – | – | – | –
K-562 [16] | – | – | – | – | 106 | 99.8 | 105 | 115 | 106
KCL-22 [17] | – | – | – | – | 115 | 90.2 | 105 | 114 | 90.8
KG-1 [18] | – | – | – | – | 98.2 | 95.1 | 111 | 107 | 111
LAMA-84 [19] | – | – | – | – | 115 | 94.8 | 98.7 | 110 | 102
ML-2 [20] | – | – | – | – | 108 | 92.7 | 114 | 105 | 104
MV4-11 [21] | – | – | – | – | 107 | 105 | 109 | 104 | 106
Mono-Mac-6 [22] | – | – | – | – | 122 | 96.2 | 107 | 100 | 96.5
SHI-1 [23] | – | – | – | – | 107 | 106 | 125 | 113 | 116
